Residues, ends and D or L forms follow the SMILES beside them.
Test system: large intestinal epithelium
Experiment: Mitotic rate (Colcemid-arrested metaphases per 500 crypt cells) in the large intestinal epithelium after i.p. injection
Format: in vivo, hairless mice
Details: dose of 10⁻¹² mole per animal, at the doses and times tested
Procedure: All in vivo experiments were performed with hairless mice at 0800-0900 AM. The fractions were suspended in distilled water, slightly acidified (pH=6) and injected i.p. at different doses dependent on the purity of the fraction. The controls received solvent only. The pattern of cell proliferation after injecting the peptide was examined by varying the time between treatment and sacrifice.
Two hours before sacrifice (except for the experiments testing tissue specificity in the kidney) all animals received Colcemid 0.15 mg per animal i.p. ³HTdR (tritiated thymidine) was injected 30 minutes before sacrifice (30 µCi per animal i.p.). […]
Mitotic rate: After routine dehydration and paraffin embedding, sections were cut at 5 µm and stained with haematoxylin. Colcemid-arrested mitoses per 500 crypt cells were determined in ten longitudinally cut crypts in ileum and colon. […] The number of accumulated metaphases in epidermis was determined by counting 25 vision fields of interfollicular epidermis (eyepiece 12.5, objective 40) and expressed as mitoses per vision field per 2h.

In the case of `O=C(O)CC[C@H](NC(=O)[C@@H]1CCC(=O)N1)C(=O)N[C@@H](CC(=O)O)C(=O)N[C@@H](CO)C(=O)NCC(=O)O` [pGlu-Glu-Asp-Ser-Gly(OH)] (HELM PEPTIDE1{[Glp].E.D.S.G}$$$$V2.0), the “cell proliferation in the large intestinal epithelium” value is reported as “unchanged”.

Reference: EP0394283B1, “USE OF A TRIPEPTIDE FOR THE PREPARATION OF PHARMACEUTICAL COMPOSITIONS AND A PHARMACEUTICAL COMPOSITION AND METHOD” (Hafslund Nycomed AS, priority 1987, dated 1992)
